Assay results taken from ChEMBL document CHEMBL3875189, “A benzo[b]thiophene-based selective type 4 S1P receptor agonist” (Bioorg Med Chem Lett, 2017).
Active and inactive are the calls of the source. The rule behind the calls is not given here.

Legend:
[1] = biological target: T1, Sphingosine 1-phosphate receptor 5 (Homo sapiens, UniProt Q9H228); assay: Agonist activity at recombinant human S1PR5 expressed in CHO cell membranes assessed as [35S]GTP-gammaS binding measured after 1.5 hrs by TopCount scintillation counting method relative to S1P
T1 sequence (Q9H228 whole entry): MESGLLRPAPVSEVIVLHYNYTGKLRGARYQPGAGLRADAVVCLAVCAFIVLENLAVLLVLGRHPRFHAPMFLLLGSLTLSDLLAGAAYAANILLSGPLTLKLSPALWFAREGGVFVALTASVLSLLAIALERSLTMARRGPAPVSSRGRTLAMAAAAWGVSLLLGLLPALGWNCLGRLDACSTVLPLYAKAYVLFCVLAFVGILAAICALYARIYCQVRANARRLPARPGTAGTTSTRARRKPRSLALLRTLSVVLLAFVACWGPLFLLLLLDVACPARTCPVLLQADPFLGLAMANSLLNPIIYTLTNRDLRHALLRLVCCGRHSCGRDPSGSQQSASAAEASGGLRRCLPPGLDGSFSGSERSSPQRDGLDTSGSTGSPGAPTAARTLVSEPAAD

[2] = biological target: T1, Sphingosine 1-phosphate receptor 5; assay: Agonist activity at recombinant human S1PR5 expressed in CHO cell membranes assessed as [35S]GTP-gammaS binding measured after 1.5 hrs by TopCount scintillation counting method
[3] = biological target: T2, Sphingosine 1-phosphate receptor 4 (Homo sapiens, UniProt O95977); assay: Agonist activity at recombinant human S1PR4 expressed in CHO cell membranes assessed as [35S]GTP-gammaS binding measured after 1.5 hrs by TopCount scintillation counting method
T2 sequence (O95977 whole entry): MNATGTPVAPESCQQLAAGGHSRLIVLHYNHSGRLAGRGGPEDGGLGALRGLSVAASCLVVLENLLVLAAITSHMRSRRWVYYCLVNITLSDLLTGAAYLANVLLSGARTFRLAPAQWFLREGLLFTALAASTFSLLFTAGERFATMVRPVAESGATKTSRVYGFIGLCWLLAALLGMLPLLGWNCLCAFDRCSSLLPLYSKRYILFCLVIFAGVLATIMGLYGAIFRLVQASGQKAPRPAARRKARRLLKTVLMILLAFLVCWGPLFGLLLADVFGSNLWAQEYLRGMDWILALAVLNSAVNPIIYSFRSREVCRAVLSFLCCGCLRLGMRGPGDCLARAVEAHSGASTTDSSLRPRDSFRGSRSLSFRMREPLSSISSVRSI

[4] = biological target: T3, Sphingosine 1-phosphate receptor 1 (Homo sapiens, UniProt P21453); assay: Agonist activity at recombinant human S1PR1 expressed in CHO cell membranes assessed as [35S]GTP-gammaS binding measured after 1.5 hrs by TopCount scintillation counting method
T3 sequence (P21453 whole entry): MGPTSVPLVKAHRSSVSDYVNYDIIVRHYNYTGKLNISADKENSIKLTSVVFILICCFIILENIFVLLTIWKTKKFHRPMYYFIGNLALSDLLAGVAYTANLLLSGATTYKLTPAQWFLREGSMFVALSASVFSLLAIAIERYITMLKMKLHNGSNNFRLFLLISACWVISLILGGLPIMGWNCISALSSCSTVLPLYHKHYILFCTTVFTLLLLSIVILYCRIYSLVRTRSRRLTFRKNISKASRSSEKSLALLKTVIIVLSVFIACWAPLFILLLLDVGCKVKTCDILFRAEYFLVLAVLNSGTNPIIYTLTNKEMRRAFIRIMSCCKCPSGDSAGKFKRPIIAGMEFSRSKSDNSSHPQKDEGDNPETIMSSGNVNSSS

[5] = biological target: T3, Sphingosine 1-phosphate receptor 1; assay: Activation of human S1PR1 expressed in CHO cells assessed as ERK1/2 phosphorylation at 1 to 10 uM treated under serum-free condition post 1 day serum starvation measured after 10 to 30 mins by Western blot analysis; format: cell-based
[6] = biological target: T1, Sphingosine 1-phosphate receptor 5; assay: Activation of human S1PR5 expressed in CHO cells assessed as suppression of forskolin-induced intracellular cAMP level at 1 to 10 uM measured after 15 mins by ELISA; format: functional, cell-based
[7] = biological target: Sphingosine 1-phosphate receptor 3 (Homo sapiens, UniProt Q99500); assay: Agonist activity at recombinant human S1PR3 expressed in CHO cell membranes assessed as [35S]GTP-gammaS binding measured after 1.5 hrs by TopCount scintillation counting method
Sequence of Sphingosine 1-phosphate receptor 3 (Q99500 whole entry): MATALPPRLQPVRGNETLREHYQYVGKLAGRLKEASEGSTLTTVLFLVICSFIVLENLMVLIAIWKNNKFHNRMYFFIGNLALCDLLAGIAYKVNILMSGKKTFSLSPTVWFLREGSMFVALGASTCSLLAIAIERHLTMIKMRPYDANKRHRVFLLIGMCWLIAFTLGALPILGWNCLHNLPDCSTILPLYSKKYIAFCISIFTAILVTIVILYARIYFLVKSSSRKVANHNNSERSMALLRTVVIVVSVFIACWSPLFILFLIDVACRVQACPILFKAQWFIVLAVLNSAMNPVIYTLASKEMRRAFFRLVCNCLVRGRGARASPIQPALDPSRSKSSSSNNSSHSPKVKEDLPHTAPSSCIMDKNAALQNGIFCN

[8] = biological target: Sphingosine 1-phosphate receptor 2 (Homo sapiens, UniProt O95136); assay: Agonist activity at recombinant human S1PR2 expressed in CHO cell membranes assessed as [35S]GTP-gammaS binding measured after 1.5 hrs by TopCount scintillation counting method
Sequence of Sphingosine 1-phosphate receptor 2 (O95136 whole entry): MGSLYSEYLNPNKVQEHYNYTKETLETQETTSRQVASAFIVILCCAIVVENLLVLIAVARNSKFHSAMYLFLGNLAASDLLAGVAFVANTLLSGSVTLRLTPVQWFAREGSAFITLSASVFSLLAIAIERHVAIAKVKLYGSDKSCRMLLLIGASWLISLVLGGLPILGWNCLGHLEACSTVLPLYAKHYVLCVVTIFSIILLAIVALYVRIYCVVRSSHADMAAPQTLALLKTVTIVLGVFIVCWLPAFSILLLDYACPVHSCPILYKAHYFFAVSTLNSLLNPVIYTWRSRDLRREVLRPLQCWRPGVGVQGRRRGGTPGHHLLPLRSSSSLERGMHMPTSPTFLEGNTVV

[9] = biological target: T3, Sphingosine 1-phosphate receptor 1; assay: Activation of human S1PR1 expressed in CHO cells assessed as suppression of forskolin-induced intracellular cAMP level at 1 to 10 uM measured after 15 mins by ELISA; format: functional, cell-based

| Efficacy [1] | EC50 [2] | EC50 [3] | SMILES | further results |
| --- | --- | --- | --- | --- |
| 23% | 4510 nM | > 100000 nM | O=C(O)c1ccc(CNCc2cc3cccc(-c4ccc5ccccc5c4)c3s2)cc1 |  |
| 39% | 3070 nM | 693 nM | O=C(O)CCCNCc1cc2cccc(-c3cccc(C(F)(F)F)c3)c2s1 |  |
| 14% | 175 nM | 1010 nM | O=C(O)C1CN(Cc2cc3c(-c4ccc5ccccc5c4)cccc3s2)C1 |  |
| 7% | 3540 nM | 13500 nM | Cc1ccccc1-c1cccc2cc(CNCCCC(=O)O)sc12 |  |
|  | > 100000 nM | 1930 nM | COc1ccc2cc(-c3cccc4cc(CNCCCC(=O)O)sc34)ccc2c1 |  |
| 54% | 709 nM | 724 nM | O=C(O)CCCCNCc1cc2cc(-c3ccc4ccccc4c3)ccc2s1 |  |
| 11% | 6700 nM | > 100000 nM | CCc1ccccc1-c1cccc2sc(CNCc3ccc(C(=O)O)cc3)cc12 |  |
| 36% | 280 nM | 187 nM | O=C(O)CCNCc1cc2cccc(-c3ccc4ccccc4c3)c2s1 |  |
|  | > 100000 nM | 10300 nM | CCc1ccccc1-c1cccc2sc(CNCC(C)C(=O)O)cc12 (configuration not stated) |  |
| 50% | 22 nM | > 100000 nM | O=C(O)C1CN(Cc2cc3cc(-c4ccc5ccccc5c4)ccc3s2)C1 | EC50 [4]: > 100 µM; Activity [5]: Active; Activity [6]: Active; EC50 [7]: > 100 µM; EC50 [8]: > 100 µM; Activity [9]: Active |
| 32% | 4020 nM | 1430 nM | O=C(O)Cc1ccc(NCc2cc3cccc(-c4ccc5ccccc5c4)c3s2)cc1 |  |
|  | > 100000 nM | 18300 nM | CCc1ccccc1-c1cccc2sc(CNCCCC(=O)O)cc12 |  |
|  | > 100000 nM | 57600 nM | CCc1ccccc1-c1cccc2sc(CNCC(N)C(=O)O)cc12 (configuration not stated) |  |
| 53% | 356 nM | > 100000 nM | O=C(O)c1ccc(CNCc2cc3c(-c4ccc5ccccc5c4)cccc3s2)cc1 | EC50 [4]: > 100 µM; EC50 [7]: > 100 µM; EC50 [8]: > 100 µM |
| 65% | 143 nM | 165 nM | O=C(O)CCCNCc1cc2cc(-c3ccc4ccccc4c3)ccc2s1 |  |
|  | > 100000 nM | > 100000 nM | CCc1ccccc1-c1cccc2cc(CN3CC(C(=O)O)C3)sc12 |  |
| 16% | 2490 nM | > 100000 nM | CCc1ccccc1-c1cccc2cc(CNCCCCC(=O)O)sc12 |  |
| 47% | 51 nM | 640 nM | O=C(O)CNCc1cc2c(-c3ccc4ccccc4c3)cccc2s1 | EC50 [4]: > 100 µM; EC50 [7]: > 100 µM; EC50 [8]: > 100 µM |
| 15% | 552 nM | 1900 nM | O=C(O)CCCNCc1cc2cccc(-c3ccc(C(F)(F)F)cc3)c2s1 |  |
| 75% | 31 nM | 433 nM | O=C(O)CCNCc1cc2c(-c3ccc4ccccc4c3)cccc2s1 | EC50 [4]: > 100 µM; EC50 [7]: > 100 µM; EC50 [8]: > 100 µM |

| Efficacy [1] | EC50 [2] | EC50 [3] | SMILES | further results |
| --- | --- | --- | --- | --- |
| 25% | 10300 nM | 9250 nM | Cc1cccc(-c2cccc3cc(CNCCCC(=O)O)sc23)c1 |  |
|  | > 100000 nM | > 100000 nM | O=C(O)c1ccc(CNCc2cc3cc(-c4ccc5ccccc5c4)ccc3s2)cc1 |  |
| 25% | 2320 nM | 1980 nM | O=C(O)CCCNCc1cc2cccc(-c3cccc4ccccc34)c2s1 |  |
| 35% | 1070 nM | 694 nM | NC(CNCc1cc2cccc(-c3ccc4ccccc4c3)c2s1)C(=O)O (configuration not stated) |  |
| 25% | 1560 nM | 3100 nM | CCc1ccccc1-c1cccc2cc(CNCC(N)C(=O)O)sc12 (configuration not stated) |  |
| 78% | 25 nM | 38 nM | O=C(O)CCNCc1cc2cc(-c3ccc4ccccc4c3)ccc2s1 |  |
| 47% | 152 nM | 1080 nM | O=C(O)CCCCNCc1cc2c(-c3ccc4ccccc4c3)cccc2s1 | EC50 [4]: > 100 µM; EC50 [7]: > 100 µM; EC50 [8]: > 100 µM |
| 23% | 2140 nM |  | O=C(O)Cc1cccc(NCc2cc3c(-c4ccc5ccccc5c4)cccc3s2)c1 |  |
| 18% | 49 nM | 331 nM | O=C(O)CCCNCc1cc2cccc(-c3cccc(-c4ccccc4)c3)c2s1 |  |
| 32% | 272 nM | 1480 nM | O=C(O)CNCc1cc2cccc(-c3ccc4ccccc4c3)c2s1 |  |
|  | > 100000 nM | > 100000 nM | CCc1ccccc1-c1cccc2sc(CNCCC(=O)O)cc12 |  |
| 63% | 350 nM | 350 nM | O=C(O)CNCc1cc2cc(-c3ccc4ccccc4c3)ccc2s1 |  |
| 12% | 769 nM | > 100000 nM | O=C(O)Cc1cccc(NCc2cc3cc(-c4ccc5ccccc5c4)ccc3s2)c1 |  |
| 69% | 60 nM | 211 nM | O=C(O)CCCNCc1cc2c(-c3ccc4ccccc4c3)cccc2s1 | EC50 [4]: > 100 µM; EC50 [7]: > 100 µM; EC50 [8]: > 100 µM |
| 10% | 6450 nM | 2060 nM | O=C(O)CCCNCc1cc2cccc(-c3ccc(-c4ccccc4)cc3)c2s1 |  |
| 26% | 4690 nM | 5070 nM | CC(C)(C)c1ccc(-c2cccc3cc(CNCCCC(=O)O)sc23)cc1 |  |
| 36% | 3970 nM | 1190 nM | CCc1ccccc1-c1cccc2cc(CNc3cccc(CC(=O)O)c3)sc12 |  |
|  | > 100000 nM | > 100000 nM | O=C(O)Cc1ccc(NCc2cc3cc(-c4ccc5ccccc5c4)ccc3s2)cc1 |  |
| 77% | 232 nM | 115 nM | CC(CNCc1cc2cc(-c3ccc4ccccc4c3)ccc2s1)C(=O)O (configuration not stated) |  |
| 15% | 2590 nM | > 100000 nM | CCc1ccccc1-c1cccc2cc(CNCCC(=O)O)sc12 |  |

| Efficacy [1] | EC50 [2] | EC50 [3] | SMILES | further results |
| --- | --- | --- | --- | --- |
| 13% | 506 nM | > 100000 nM | O=C(O)C1CN(Cc2cc3cccc(-c4ccc5ccccc5c4)c3s2)C1 |  |
| 43% | 2810 nM | 19900 nM | Cc1ccc(-c2cccc3cc(CNCCCC(=O)O)sc23)cc1 |  |
| 69% | 728 nM | 541 nM | NC(CNCc1cc2cc(-c3ccc4ccccc4c3)ccc2s1)C(=O)O (configuration not stated) |  |
| 10% | 4220 nM | > 100000 nM | CCc1ccccc1-c1cccc2cc(CNCC(C)C(=O)O)sc12 (configuration not stated) |  |
| 10% | 21200 nM | > 100000 nM | CCc1ccccc1-c1cccc2sc(CN3CC(C(=O)O)C3)cc12 |  |
| 26% | 3130 nM | 3920 nM | O=C(O)CCCNCc1cc2cccc(-c3ccc4c(c3)OCO4)c2s1 |  |
|  | > 100000 nM | > 100000 nM | CCc1ccccc1-c1cccc2cc(CNCCCC(=O)O)sc12 |  |
|  | > 100000 nM | 470 nM | CCc1ccccc1-c1cccc2sc(CNc3cccc(CC(=O)O)c3)cc12 |  |
|  | > 100000 nM | > 100000 nM | CCc1ccccc1-c1cccc2cc(CNCc3ccc(C(=O)O)cc3)sc12 |  |
|  | > 100000 nM | > 100000 nM | O=C(O)Cc1ccc(NCc2cc3c(-c4ccc5ccccc5c4)cccc3s2)cc1 |  |
| 32% | 887 nM | 1020 nM | CC(CNCc1cc2cccc(-c3ccc4ccccc4c3)c2s1)C(=O)O (configuration not stated) |  |
| 37% | 412 nM | 410 nM | O=C(O)CCCCNCc1cc2cccc(-c3ccc4ccccc4c3)c2s1 |  |
| 9% | 4770 nM | 2570 nM | CCc1ccccc1-c1cccc2sc(CNc3ccc(CC(=O)O)cc3)cc12 |  |
| 22% | 1670 nM | 816 nM | O=C(O)Cc1cccc(NCc2cc3cccc(-c4ccc5ccccc5c4)c3s2)c1 |  |
|  | > 100000 nM | > 100000 nM | CCc1ccccc1-c1cccc2cc(CNCC(=O)O)sc12 |  |
|  | > 100000 nM | > 100000 nM | CCc1ccccc1-c1cccc2sc(CNCC(=O)O)cc12 |  |
| 20% | 2100 nM | 3410 nM | CCc1ccccc1-c1cccc2cc(CNc3ccc(CC(=O)O)cc3)sc12 |  |
|  | > 100000 nM | 11100 nM | CCc1ccccc1-c1cccc2sc(CNCCCCC(=O)O)cc12 |  |
| 34% | 329 nM | 1100 nM | NC(CNCc1cc2c(-c3ccc4ccccc4c3)cccc2s1)C(=O)O (configuration not stated) |  |
